The subject of assay [1] is K-Ras G12C (NCI-H358 cells). Put plainly: Potency assay: pERK in NCI-H358 cells. Conditions: read-out: pERK EC50 (H358 KRAS G12C). It is filed as cell-based, human. The gist of the method: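 Cells plated the day before were exposed for 4 h at 37° C, 5% CO2 to a 10-point, 3-fold DMSO dilution series (10 mM top stock), in duplicate. Phospho-ERK was read by AlphaLISA SureFire Ultra or by In-Cell Western with DRAQ5 DNA stain, and IC50 came from a 4-parameter sigmoidal fit.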

The test system of assay [2] is NCI-H358 (K-Ras G12C). Put plainly: CellTiter-Glo cell viability assay, NCI-H358. It is filed as cell-based, human. The method in brief: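 NCI-H358 (K-Ras G12C) cells treated with compound dispensed directly into plates. CellTiter-Glo luminescence read on day 5 after ~30 min equilibration to room temperature. Signal normalised to DMSO average ×100, then fitted with a four-parameter logistic model.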

Setting [3] is: Homo sapiens, NCI-H358 cells, 4 hours.
[4] abbreviates: Homo sapiens, NCI-H358, 120 h, 5-day treatment, read-out: H358 Cell Viability assay data (K-Ras G12C, IC50).
Where [5] appears, read: read-out: H358 Cell Viability assay data (K-Ras G12C, IC50), 5-day treatment.
Setting [6] is: 5-day treatment, read-out: H358 Cell Viability assay data (K-Ras G12C, IC50).

Each structure is given as a SMILES string. Like-named read-outs stand apart in the source and are kept apart here. Bounds are passed on as bounds.

One may read the EC50 as the concentration giving half of the maximal effect. For orientation: IC50 means the concentration at which inhibition is half-maximal. Regarding `CCn1c(-c2cnccc2COC)c2c3cc(ccc31)-c1cc(O)cc(c1)C[C@H](NC(=O)[C@H](C(C)C)N(C)CC(F)(F)F)C(=O)N1CCC[C@H](N1)C(=O)OCC(C)(C)C2` [Compound A77], the 50% effective concentration (EC50) in assay [1] (setting [3]) was less than 5000 nM. Further, the IC50 in assay [2] (setting [4]) fell in the range of 0.01 to 0.1 µM.

Turning to `CCn1c(-c2cnccc2COC)c2c3cc(ccc31)-c1cc(O)cc(c1)C[C@H](NC(=O)[C@H](C(C)C)N(C)C(=O)[C@@H]1CN(C(C)=O)C[C@@H]1C(F)(F)F)C(=O)N1CCC[C@H](N1)C(=O)OCC(C)(C)C2` [Compound A80], the EC50 in assay [1] (setting [3]) is less than 5000 nM. In addition, the IC50 in assay [2] (setting [4]) lay within 0.1 to 1 µM.

Consider `CCn1c(-c2cnccc2COC)c2c3cc(ccc31)-c1cc(O)cc(c1)C[C@H](NC(=O)[C@H](C(C)C)N(C)C(=O)[C@@H]1CCCO1)C(=O)N1CCC[C@H](N1)C(=O)OCC(C)(C)C2` [Compound A91], for which the half-maximal effective concentration (EC50) in assay [1] (setting [3]) was less than 5000 nM. Besides, the IC50 in assay [2] (setting [4]) was less than 0.01 µM.

As to `CCn1c(-c2cccnc2[C@H](C)OC)c2c3cc(ccc31)-c1cc(O)cc(c1)C[C@H](NC(=O)[C@H](C(C)C)N(C)C(=O)[C@H]1CCN(C(=O)CN(C)C)C1)C(=O)N1CCC[C@H](N1)C(=O)OCC(C)(C)C2` [Compound A95], in assay [1] (setting [3]), the EC50 is less than 5000 nM. In assay [2] (setting [4]), the IC50 is 0.01 to 0.1 µM.

Consider `CC#CC(=O)N1CC[C@H](C(=O)N(C)[C@H](C(=O)N[C@H]2Cc3cc(O)cc(c3)-c3ccc4c(c3)c(c(-c3cccnc3[C@H](C)OC)n4CC)CC(C)(C)COC(=O)[C@@H]3CCCN(N3)C2=O)C(C)C)C1` [Compound A145, (2S)-2-{1-[(3S)-1-(but-2-ynoyl)pyrrolidin-3-yl]-N-methylformamido}-N-[(8S,14S,20M)-22-ethyl-4-hydroxy-21-{2-[(1S)-1-methoxyethyl]pyridin-3-yl}-18, 18-dimethyl-9,15-dioxo-16-oxa-10,22,28-triazapentacyclo [18.5.2.1^2,6.1^10,14.0^23,27]nonacosa-1 (26),2,4,6 (29),20,23 (27),24-heptaen-8-yl]-3-methylbutanamide], for which the concentration giving a half-maximal response (EC50) in assay [1] (Homo sapiens, NCI-H358, 4 h) is less than 5000 nM. Also, the IC50 was less than 0.01 µM in assay [2] (Homo sapiens, NCI-H358, 120 h, read-out: H358 Cell Viability assay data (K-Ras G12C, IC50, uM), 5-day treatment) and 0.01 to 0.1 µM in assay [2] (setting [5]).

As for `CCn1c(-c2cccnc2[C@H](C)OC)c2c3cc(ccc31)-c1cc(O)cc(c1)C[C@H](NC(=O)[C@H](C(C)C)N(C)C(=O)C13CNCC1C3)C(=O)N1CCC[C@H](N1)C(=O)OCC(C)(C)C2` (stereo partly drawn) [Compound A155], the EC50 in assay [1] (setting [3]) was less than 5000 nM. The IC50 was 0.01 to 0.1 µM in assay [2] (setting [6]) and less than 0.01 µM in assay [2] (setting [4]).

Regarding `CCn1c(-c2cccnc2[C@H](C)OC)c2c3cc(ccc31)-c1cc(O)cc(c1)C[C@H](NC(=O)[C@H](C(C)C)N(C)C(=O)C1CC13CC3)C(=O)N1CCC[C@H](N1)C(=O)OCC(C)(C)C2` (stereo partly drawn) [Compound A156], the EC50 in assay [1] (setting [3]) is less than 5000 nM. Moreover, the IC50 in assay [2] (setting [4]) lay within 0.01 to 0.1 µM.

Take `CC#CC(=O)N1CC[C@H](C(=O)N(C)[C@@H](C(=O)N[C@H]2Cc3cc(O)cc(c3)-c3ccc4c(c3)c(c(-c3cccnc3[C@H](C)OC)n4CC)CC(C)(C)COC(=O)[C@@H]3CCCN(N3)C2=O)C(C)C)C1` [Compound A199]: in assay [1] (Homo sapiens, NCI-H358, 4 h), the EC50 was less than 5000 nM. Moreover, the IC50 in assay [2] (setting [5]) was in the range of 0.1 to 1 µM.

As for `CCn1c(-c2cccnc2[C@H](C)OC)c2c3cc(ccc31)-c1cccc(c1)C[C@H](NC(=O)[C@H](C(C)C)N(C)C(=O)[C@H]1CCN(C(=O)/C=C/CN3CC(OC)C3)C1)C(=O)N1CCC[C@H](N1)C(=O)OCC(C)(C)C2` [Compound A203], the EC50 in assay [1] (NCI-H358 cells, 4 hours) is less than 5000 nM. The IC50 in assay [2] (setting [6]) was more than 10 µM.

With `CCn1c(-c2cccnc2[C@H](C)OC)c2c3cc(ccc31)-c1cccc(c1)C[C@H](NC(=O)[C@H](C(C)C)N(C)C(=O)[C@H]1CCN(C(=O)/C=C/CN3CC(OC)C3)C1)C(=O)N1CCC[C@H](N1)C(=O)OCC(C)(C)C2` [Compound A204], the EC50 in assay [1] (setting [3]) was less than 5000 nM. Further, in assay [2] (setting [6]), the IC50 is 0.01 to 0.1 µM.

Take `CCn1c(-c2cccnc2[C@H](C)OC)c2c3cc(ccc31)-c1cc(O)cc(c1)C[C@H](NC(=O)[C@H](C(C)C)N(C)C(=O)C1(CO)CC1)C(=O)N1CCC[C@H](N1)C(=O)OCC(C)(C)C2` [Compound A232]: the EC50 in assay [1] (setting [3]) was less than 5000 nM. The IC50 in assay [2] (setting [4]) was in the range of 0.01 to 0.1 µM.

Source of the values: patent US20250195521A1 (Revolution Medicines, Inc., priority 2020, published 2025).
